Calls of active or inactive are those of the source. No cut-off for these calls is given here.

Experiment [1] relates to Macrophage. The experiment in a line: Inhibition of LPS-stimulated nitric oxide production in BALB/c mouse macrophages at 1 uM after 20 hrs by Griess assay relative to control. The experiment is classed as functional.
Experiment [2] relates to Macrophage. The experiment in a line: Inhibition of LPS-stimulated nitric oxide production in BALB/c mouse macrophages at 3 uM after 20 hrs by Griess assay relative to control. The experiment is classed as functional. In general terms: Griess reagent forms a coloured azo dye with nitrite.
In experiment [3] the test system is Macrophage. The experiment in a line: Inhibition of LPS-stimulated nitric oxide production in BALB/c mouse macrophages after 20 hrs by Griess assay relative to control. Type of experiment: functional, cell-based.
Experiment [4] relates to Macrophage. The experiment in a line: Inhibition of LPS-stimulated nitric oxide production in BALB/c mouse macrophages at 30 uM after 20 hrs by Griess assay relative to control. The experiment is classed as functional.
For experiment [5], the system named is Macrophage. The experiment in a line: Inhibition of LPS-stimulated nitric oxide production in BALB/c mouse macrophages at 100 uM after 20 hrs by Griess assay relative to control. The experiment is classed as functional.
Experiment [6] concerns Macrophage. The experiment in a line: Inhibition of LPS-stimulated nitric oxide production in BALB/c mouse macrophages at 10 uM after 20 hrs by Griess assay relative to control. The experiment is classed as functional.
Experiment [7] concerns Macrophage. The experiment in a line: Inhibition of iNOS expression in LPS-activated BALB/c mouse macrophages at 1 to 100 uM after 12 hrs by SDS-PAGE. The experiment is classed as functional, cell-based.

Consider `COc1c2cc(c(O)c1OC)CCCC[C@@H]1OC(C)(C)O[C@H]1Cc1ccc(O)c-2c1` [MYRICANANIN B], for which the inhibition (commonly the change of the read-out against control, counted positive when it falls) at 1 µM in experiment [1] worked out at 17.3%. Besides, the inhibition at 3 µM in experiment [2] came to 32.8%. For the same compound, inhibition in experiment [3] was half-maximal at 52.8 µM (IC50). In addition, the inhibition at 30 µM in experiment [4] stood at 49.7%. The inhibition at 100 µM in experiment [5] came out at 55.8%. In addition, the inhibition at 10 µM in experiment [6] came to 39.2%.
Turning to `COc1c2cc(c(O)c1OC)CCCCC(=O)/C=C\c1cc(O)c(O)c-2c1` [MYRICANANIN D], the inhibition at 1 µM in experiment [1] was determined as 6.12%. The inhibition at 3 µM in experiment [2] stood at 17.7%. Moreover, the inhibition at 30 µM in experiment [4] amounted to 19.1%. Also, the inhibition at 100 µM in experiment [5] was determined as 31.8%. In experiment [6], the inhibition at 10 µM was 23.8%.
For the compound `COc1c2cc(c(O)c1OC)CCCCC(=O)C(O)Cc1ccc(O)c-2c1` (stereo unspecified), in experiment [1], the inhibition at 1 µM stood at 35.1%. The inhibition at 3 µM in experiment [2] was 48.7%. Besides, in experiment [3], the IC50 (as a rule, the concentration needed to halve the response being measured) is 30.2 µM. The inhibition at 30 µM in experiment [4] came out at 55.7%. Besides, the inhibition at 100 µM in experiment [5] stood at 65.5%. Also, in experiment [6], the inhibition at 10 µM worked out at 41.8%.
Turning to `COc1c2cc(c(O)c1OC)CCCCC(=O)C(OC)Cc1cc(O)c(O)c-2c1` (stereo unspecified) [MYRICANANIN E], the inhibition at 1 µM in experiment [1] is -3.27%. The inhibition at 3 µM in experiment [2] stood at 9.22%. For the same compound, in experiment [4], the inhibition at 30 µM was 29.8%. Further, the inhibition at 100 µM in experiment [5] amounted to 49.2%. For the same compound, the inhibition at 10 µM in experiment [6] worked out at 15.3%.
In the case of `COc1cc2cc(c1O)-c1cc(ccc1O)C[C@H](O)[C@@H](O)CCCC2` [MYRICANANIN A], the inhibition at 1 µM in experiment [1] came out at 0.84%. Also, the inhibition at 3 µM in experiment [2] is -0.13%. The compound also had an IC50 in experiment [3] of 45.3 µM. Moreover, in experiment [7], the result was Active. Further, in experiment [4], the inhibition at 30 µM stood at 50.8%. For the same compound, the inhibition at 100 µM in experiment [5] was 84.4%. For the same compound, the inhibition at 10 µM in experiment [6] was determined as 36%.
Consider `COc1cc2cc(c1O)-c1cc(ccc1O)CCC(=O)CCCC2` [MYRICANANIN C], for which, in experiment [1], the inhibition at 1 µM was found to be 17.3%. Besides, in experiment [2], the inhibition at 3 µM was 32.8%. The same compound showed an IC50 in experiment [3] of 63.5 µM. In addition, the inhibition at 30 µM in experiment [4] amounted to 42.6%. Further, the inhibition at 100 µM in experiment [5] turned out to be 50.1%. The inhibition at 10 µM in experiment [6] stood at 39.1%.
Turning to `O=C1CCc2ccc(O)c(c2)-c2cc(ccc2O)CCC(O)C1` (stereo unspecified) [ALNUSONOL], the inhibition at 1 µM in experiment [1] is -3.39%. The inhibition at 3 µM in experiment [2] came to 34.8%. In experiment [3], this compound had an IC50 of 46.2 µM. The inhibition at 30 µM in experiment [4] came out at 41.1%. Also, the inhibition at 100 µM in experiment [5] was found to be 54.5%. In addition, the inhibition at 10 µM in experiment [6] is 45.8%.
`COC1=C(OC)C(=O)C2=C(CCCCC(O)CCc3ccc(O)c2c3)C1=O` (stereo unspecified) [ACTINIDIONE]: the inhibition at 1 µM in experiment [1] worked out at 9.52%. Also, the inhibition at 3 µM in experiment [2] worked out at 21.1%. In experiment [4], the inhibition at 30 µM is 31.4%. Moreover, the inhibition at 100 µM in experiment [5] is 38.7%. Besides, the inhibition at 10 µM in experiment [6] was determined as 22.9%.

The values above are taken from ChEMBL document CHEMBL1144165, “Cyclic diarylheptanoids from Myrica nana inhibiting nitric oxide release” (Bioorg Med Chem, 2008).
